From US20090137572A1, “2-substituted-4-heteroaryl-pyrimidines useful for the treatment of proliferative disorders” (priority 2004, published 2009) come the findings set out here.

In data set [1] the target is T1, Flt3 (FMS-like tyrosine kinase-3) (Homo sapiens, UniProt P36888).
T1 sequence (P36888 27-993): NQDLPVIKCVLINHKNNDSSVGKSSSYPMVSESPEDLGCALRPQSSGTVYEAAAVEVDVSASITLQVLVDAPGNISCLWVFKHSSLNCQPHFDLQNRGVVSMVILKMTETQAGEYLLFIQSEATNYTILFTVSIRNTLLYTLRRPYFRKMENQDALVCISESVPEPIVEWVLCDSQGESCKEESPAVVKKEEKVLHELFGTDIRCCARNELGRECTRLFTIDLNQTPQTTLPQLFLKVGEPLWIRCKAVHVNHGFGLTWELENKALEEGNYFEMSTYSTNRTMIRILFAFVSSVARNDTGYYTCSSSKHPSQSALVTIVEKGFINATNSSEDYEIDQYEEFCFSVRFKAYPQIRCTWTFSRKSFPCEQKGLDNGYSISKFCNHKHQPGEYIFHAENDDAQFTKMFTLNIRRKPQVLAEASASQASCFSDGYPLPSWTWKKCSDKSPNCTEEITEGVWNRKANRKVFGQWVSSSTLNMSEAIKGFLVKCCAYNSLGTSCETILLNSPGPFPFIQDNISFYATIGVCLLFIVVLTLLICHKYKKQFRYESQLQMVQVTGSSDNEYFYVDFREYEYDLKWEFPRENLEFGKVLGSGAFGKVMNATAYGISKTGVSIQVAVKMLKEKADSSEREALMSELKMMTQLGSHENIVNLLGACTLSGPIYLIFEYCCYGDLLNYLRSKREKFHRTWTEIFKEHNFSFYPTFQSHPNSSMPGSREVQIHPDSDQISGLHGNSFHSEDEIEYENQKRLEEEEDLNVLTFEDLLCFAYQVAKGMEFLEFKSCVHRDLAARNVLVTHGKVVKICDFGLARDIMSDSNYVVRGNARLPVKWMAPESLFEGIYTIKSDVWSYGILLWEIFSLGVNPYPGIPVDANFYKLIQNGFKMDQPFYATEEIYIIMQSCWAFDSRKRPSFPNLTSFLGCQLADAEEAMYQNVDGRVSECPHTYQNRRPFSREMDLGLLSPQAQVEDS
As to the kind of experiment: Kinase assay (radioactive phosphate incorporation), Flt3. It is filed as biochemical. Conditions: pIC50 is -log(IC50, M), read-out: Kinase Inhibition pIC50 Flt3 (converted). On the procedure: (§1) Kinase assays. The compounds of the invention above were investigated for their ability to inhibit the enzymatic activity of various protein kinases (Table 2). This was achieved by measurement of incorporation of radioactive phosphate from ATP into appropriate polypeptide substrates. Recombinant protein kinases and kinase complexes were produced or obtained commercially. Assays were performed using 96-well plates and appropriate assay buffers (typically 25 mM β-glycerophosphate, 20 mM MOPS, 5 mM EGTA, 1 mM DTT, 1 mM […], pH 7.4), into which were added 2-4 μg of active enzyme with appropriate substrates. The reactions were initiated by addition of Mg/ATP mix (15 mM MgCl2+100 μM ATP with 30-50 kBq per well of [γ-^32P]-ATP) and mixtures incubated as required at 30° C. Reactions were stopped on ice, followed by filtration through p81 filterplates or GF/C filterplates (Whatman Polyfiltronics, Kent, UK). After washing 3 times with 75 mM aq orthophosphoric acid, plates were dried, scintillant added and incorporated radioactivity measured in a scintillation counter (TopCount, Packard Instruments, Pangbourne, Berks, UK). Compounds for kinase assay were made up as 10 mM stocks in DMSO and diluted into 10% DMSO in assay buffer.

The next data set addresses CDK1-cyclin B (Homo sapiens, UniProt P06493). The experiment in a line: Kinase assay (radioactive phosphate incorporation), CDK1-cyclin B. Conditions: read-out: Kinase Inhibition pIC50 CDK1-cyclin B (converted). It is filed as biochemical. On the procedure:
as §1

Another data set deals with CDK7/cyclin H (Homo sapiens, UniProt P50613). The experiment in a line: CDK 7 assay (CTD peptide substrate). Conditions: read-out: Kinase Inhibition pIC50 CDK7-cyclin H (converted). It counts as biochemical. The gist of the method: (§2)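 Inhibition measured against recombinant human kinase/cyclin complex phosphorylating biotin-(Tyr-Ser-Pro-Thr-Ser-Pro-Ser)4 peptide, 100 μM radiolabelled ATP, 45 min at 30° C. Product quantified by filter capture and scintillation counting.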

The target of another data set is GSK3b (Homo sapiens, UniProt P49841). The experiment in a line: Kinase assay (radioactive phosphate incorporation), GSK-3b. It is filed as biochemical. Conditions: read-out: Kinase Inhibition pIC50 GSK-3b (converted). Here is the method: as §1
Another data set deals with CDK9/cyclin T1 (Homo sapiens, UniProt P50750). The experiment in a line: CDK 9 assay (CTD peptide substrate). It counts as biochemical. Conditions: read-out: Kinase Inhibition pIC50 CDK9-cyclin T1 (converted). Summed up:
as §2

A further data set concerns the target T2, Aurora A kinase (Homo sapiens, UniProt O14965).
T2 construct: purchased
T2 sequence (O14965 1-403): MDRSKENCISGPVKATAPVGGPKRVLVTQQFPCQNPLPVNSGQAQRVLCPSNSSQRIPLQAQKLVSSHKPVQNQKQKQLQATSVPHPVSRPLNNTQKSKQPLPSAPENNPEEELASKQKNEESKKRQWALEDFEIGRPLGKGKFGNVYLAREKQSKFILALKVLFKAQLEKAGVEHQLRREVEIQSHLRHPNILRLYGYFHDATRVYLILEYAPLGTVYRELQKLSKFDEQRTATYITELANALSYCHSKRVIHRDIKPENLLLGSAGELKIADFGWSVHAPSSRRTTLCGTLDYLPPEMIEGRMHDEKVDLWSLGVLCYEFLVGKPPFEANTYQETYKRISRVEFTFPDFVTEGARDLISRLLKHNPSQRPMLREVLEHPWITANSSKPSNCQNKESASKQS
As to the kind of experiment: Aurora-A (human) kinase assay (Kemptide substrate). It counts as biochemical. Conditions: pIC50 is -log(IC50, M); 15 μM ATP; read-out: Kinase Inhibition pIC50 Aurora A kinase (converted). The gist of the method:
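Kemptide (LRRASLG, 200 μM) phosphorylation by 5-10 ng commercial aurora-A measured as [γ-33P] incorporation at 15 μM ATP with 10 mM Mg acetate, pH 7.0 MOPS buffer. Reaction ran 40 min at room temperature; acid-stopped, captured on P81 filters, scintillation read.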

For the next data set, the target named is CDK2-cycline E (Homo sapiens, UniProt P24941). The experiment in a line: Kinase assay (radioactive phosphate incorporation), CDK2-cyclin E. Conditions: read-out: Kinase Inhibition pIC50 CDK2-cycline E (converted). It is filed as biochemical. Summed up:
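Each recombinant kinase was combined with its polypeptide substrate in pH 7.4 assay buffer. Mg/ATP mix carrying [γ-32P]-ATP (100 μM ATP) was then added and the plate incubated at 30° C. After stopping on ice, the reaction was filtered, washed with 75 mM orthophosphoric acid, dried and counted.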

Another data set has as its target CDK4-cyclin D1 (Homo sapiens, UniProt P11802). As to the kind of experiment: Kinase assay (radioactive phosphate incorporation), CDK4-cyclin D1. It counts as biochemical. Conditions: read-out: Kinase Inhibition pIC50 CDK4-cyclin D1 (converted). On the procedure: as §1

Sequence of CDK4-cyclin D1 (P11802 whole entry): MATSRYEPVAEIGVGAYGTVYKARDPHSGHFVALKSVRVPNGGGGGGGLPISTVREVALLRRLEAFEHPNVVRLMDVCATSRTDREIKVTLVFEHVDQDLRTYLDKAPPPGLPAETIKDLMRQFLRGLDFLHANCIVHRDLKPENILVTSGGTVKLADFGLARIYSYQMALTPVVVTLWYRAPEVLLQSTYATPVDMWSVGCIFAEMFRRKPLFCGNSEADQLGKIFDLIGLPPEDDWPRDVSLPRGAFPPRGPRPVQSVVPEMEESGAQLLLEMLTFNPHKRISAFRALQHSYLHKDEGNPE
Sequence of CDK4-cyclin D1 (P24385 whole entry partner): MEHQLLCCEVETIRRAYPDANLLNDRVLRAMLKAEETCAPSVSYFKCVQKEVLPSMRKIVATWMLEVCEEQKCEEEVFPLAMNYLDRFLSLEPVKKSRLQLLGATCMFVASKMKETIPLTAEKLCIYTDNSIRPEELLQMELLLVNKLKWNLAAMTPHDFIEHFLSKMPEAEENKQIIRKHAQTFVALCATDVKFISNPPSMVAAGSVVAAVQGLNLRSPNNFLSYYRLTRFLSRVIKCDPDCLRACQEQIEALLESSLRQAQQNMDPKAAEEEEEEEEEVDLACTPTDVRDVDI
Sequence of CDK9/cyclin T1 (P50750 whole entry): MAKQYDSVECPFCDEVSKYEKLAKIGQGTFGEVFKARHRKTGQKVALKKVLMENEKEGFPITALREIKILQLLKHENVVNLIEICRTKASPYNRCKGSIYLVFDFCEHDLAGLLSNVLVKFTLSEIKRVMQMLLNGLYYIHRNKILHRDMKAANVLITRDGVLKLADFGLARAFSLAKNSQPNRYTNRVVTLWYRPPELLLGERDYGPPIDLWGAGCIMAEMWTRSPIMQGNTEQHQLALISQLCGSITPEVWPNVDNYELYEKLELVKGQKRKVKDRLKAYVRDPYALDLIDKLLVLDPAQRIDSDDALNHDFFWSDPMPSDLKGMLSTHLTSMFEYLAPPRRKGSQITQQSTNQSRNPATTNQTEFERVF
Sequence of CDK9/cyclin T1 (O60563 whole entry partner): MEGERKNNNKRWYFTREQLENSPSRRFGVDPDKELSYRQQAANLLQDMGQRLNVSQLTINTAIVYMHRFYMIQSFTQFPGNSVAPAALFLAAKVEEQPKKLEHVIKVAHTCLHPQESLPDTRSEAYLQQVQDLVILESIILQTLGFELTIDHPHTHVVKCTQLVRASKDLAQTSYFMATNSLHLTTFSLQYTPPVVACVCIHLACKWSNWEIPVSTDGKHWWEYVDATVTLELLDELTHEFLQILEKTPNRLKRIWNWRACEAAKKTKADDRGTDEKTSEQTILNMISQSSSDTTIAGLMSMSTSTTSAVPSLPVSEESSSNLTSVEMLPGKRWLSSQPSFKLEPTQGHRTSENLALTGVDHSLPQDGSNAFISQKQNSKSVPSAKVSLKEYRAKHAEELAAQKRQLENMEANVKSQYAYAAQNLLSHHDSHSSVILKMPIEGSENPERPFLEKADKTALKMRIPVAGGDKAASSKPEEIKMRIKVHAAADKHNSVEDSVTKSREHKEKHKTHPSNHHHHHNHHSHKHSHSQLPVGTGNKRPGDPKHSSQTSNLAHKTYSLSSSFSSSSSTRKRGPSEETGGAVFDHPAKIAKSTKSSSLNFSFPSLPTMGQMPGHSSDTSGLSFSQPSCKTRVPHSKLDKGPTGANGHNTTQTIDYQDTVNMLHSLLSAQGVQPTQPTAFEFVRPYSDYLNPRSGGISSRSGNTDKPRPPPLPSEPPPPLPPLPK
Sequence of GSK3b (P49841 whole entry, species assumed): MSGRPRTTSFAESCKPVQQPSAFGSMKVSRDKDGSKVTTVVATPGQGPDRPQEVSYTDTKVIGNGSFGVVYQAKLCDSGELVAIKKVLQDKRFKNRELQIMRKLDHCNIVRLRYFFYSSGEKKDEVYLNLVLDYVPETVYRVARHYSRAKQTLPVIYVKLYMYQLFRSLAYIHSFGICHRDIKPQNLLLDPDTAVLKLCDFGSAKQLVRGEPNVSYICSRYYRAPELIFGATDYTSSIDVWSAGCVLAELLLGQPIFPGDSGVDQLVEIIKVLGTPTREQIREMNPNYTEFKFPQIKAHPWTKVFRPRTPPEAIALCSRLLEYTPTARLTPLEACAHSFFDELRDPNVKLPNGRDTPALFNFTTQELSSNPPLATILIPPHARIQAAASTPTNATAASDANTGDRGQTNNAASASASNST
Sequence of CDK7/cyclin H (P50613 whole entry): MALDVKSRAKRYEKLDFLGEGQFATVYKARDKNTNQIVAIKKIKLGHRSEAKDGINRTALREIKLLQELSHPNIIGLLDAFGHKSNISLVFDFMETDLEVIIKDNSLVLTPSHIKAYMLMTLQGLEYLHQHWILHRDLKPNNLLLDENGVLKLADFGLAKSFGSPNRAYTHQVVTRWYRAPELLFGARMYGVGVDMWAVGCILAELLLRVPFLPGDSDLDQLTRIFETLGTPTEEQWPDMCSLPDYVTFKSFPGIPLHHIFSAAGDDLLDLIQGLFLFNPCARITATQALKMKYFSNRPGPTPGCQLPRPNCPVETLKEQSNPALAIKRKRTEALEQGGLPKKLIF
Sequence of CDK7/cyclin H (P51946 whole entry partner): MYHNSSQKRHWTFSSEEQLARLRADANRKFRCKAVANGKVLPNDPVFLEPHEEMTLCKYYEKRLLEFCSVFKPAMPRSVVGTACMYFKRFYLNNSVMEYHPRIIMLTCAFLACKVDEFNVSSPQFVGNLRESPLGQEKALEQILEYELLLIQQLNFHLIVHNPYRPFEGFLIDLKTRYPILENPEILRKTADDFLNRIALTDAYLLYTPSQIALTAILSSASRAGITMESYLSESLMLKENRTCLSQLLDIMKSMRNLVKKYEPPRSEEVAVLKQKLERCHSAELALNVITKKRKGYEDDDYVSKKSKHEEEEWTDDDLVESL
Sequence of CDK1-cyclin B (P06493 whole entry): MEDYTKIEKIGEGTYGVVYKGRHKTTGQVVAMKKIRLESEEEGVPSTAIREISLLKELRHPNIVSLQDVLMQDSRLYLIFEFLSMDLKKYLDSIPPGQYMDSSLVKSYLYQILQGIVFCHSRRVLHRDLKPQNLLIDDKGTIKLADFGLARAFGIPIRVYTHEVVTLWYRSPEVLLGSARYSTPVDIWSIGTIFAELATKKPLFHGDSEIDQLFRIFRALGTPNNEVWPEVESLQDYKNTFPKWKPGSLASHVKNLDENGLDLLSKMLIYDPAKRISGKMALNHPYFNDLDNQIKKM
Sequence of CDK1-cyclin B (P14635 whole entry partner): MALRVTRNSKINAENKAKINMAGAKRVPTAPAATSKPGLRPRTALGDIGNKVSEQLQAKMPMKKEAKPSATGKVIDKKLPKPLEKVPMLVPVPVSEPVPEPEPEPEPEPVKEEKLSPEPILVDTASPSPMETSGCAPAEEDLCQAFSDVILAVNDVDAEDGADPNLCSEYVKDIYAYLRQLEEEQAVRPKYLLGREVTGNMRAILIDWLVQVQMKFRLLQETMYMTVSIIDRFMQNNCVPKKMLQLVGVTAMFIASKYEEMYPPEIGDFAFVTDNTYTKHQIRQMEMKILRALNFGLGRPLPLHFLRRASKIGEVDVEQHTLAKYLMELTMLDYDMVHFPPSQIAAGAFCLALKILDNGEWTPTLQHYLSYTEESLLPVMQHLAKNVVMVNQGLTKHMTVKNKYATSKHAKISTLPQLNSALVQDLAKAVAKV

For the compound `CC(=O)N1CCN(c2cccc(Nc3nccc(-c4sc(C)nc4C)n3)c2)CC1` [Compound 46, 1-(4-{3-[4-(2,4-Dimethyl-thiazol-5-yl)-pyrimidin-2-ylamino]-phenyl}-piperazin-1-yl)-ethanone], the IC50 in data set [1] was 200 nM; at CDK1-cyclin B it was 12600 nM; on CDK7/cyclin H it was 5010 nM; on GSK3b it was 3160 nM; at CDK9/cyclin T1, 1000 nM.

In general, melting point refers to the temperature of the solid-liquid transition. In turn, `Cc1nc(N)sc1-c1ccnc(Nc2cccc(S(=O)(=O)N3CCOCC3)c2)n1` [Compound 81, [4-(2-Amino-4-methyl-thiazol-5-yl)-pyrimidin-2-yl]-[3-(morpholine-4-sulfonyl)-phenyl]-amine] had a melting point of 215 to 216 °C. Moreover, the IC50 on Aurora A kinase is 3160 nM. Further, on CDK2-cycline E, the IC50 was 3160 nM. Also, the IC50 on CDK7/cyclin H is 6310 nM. Also, the IC50 at GSK3b was 25.1 nM.

For `Cc1ccc(Nc2nccc(-c3sc(NC(C)(C)C)nc3C)n2)cc1[N+](=O)[O-]` [Compound 2, [4-(2-tert-Butylamino-4-methyl-thiazol-5-yl)-pyrimidin-2-yl]-(4-methyl-3-nitro-phenyl)-amine], the IC50 at CDK1-cyclin B is 1260 nM; on CDK2-cycline E, 1580 nM; at CDK7/cyclin H, 794 nM; at CDK4-cyclin D1, 316 nM; on GSK3b it was 631 nM; on CDK9/cyclin T1, 316 nM.

With `CCNc1nc(C)c(-c2ccnc(Nc3cccc(S(=O)(=O)NC(C)C)c3)n2)s1` [Compound 70, 3-[4-(2-Ethylamino-4-methyl-thiazol-5-yl)-pyrimidin-2-ylamino]-N-isopropyl-benzenesulfonamide], the IC50 was 1000 nM on Aurora A kinase, 158 nM on CDK4-cyclin D1, 5010 nM on GSK3b and 100 nM at CDK9/cyclin T1.

Take `Cc1nc(C)c(-c2ccnc(Nc3ccc(C)c(S(=O)(=O)N4CCOCC4)c3)n2)s1` [Compound 82, [4-(2,4-Dimethyl-thiazol-5-yl)-pyrimidin-2-yl]-[4-methyl-3-(morpholine-4-sulfonyl)-phenyl]-amine]: the melting point fell in the range of 81 to 83 °C. In addition, the IC50 on Aurora A kinase is 3160 nM. In addition, the IC50 at CDK2-cycline E is 3980 nM. The IC50 at CDK7/cyclin H was 3980 nM. Besides, the IC50 on GSK3b was 3160 nM. Besides, the IC50 at CDK9/cyclin T1 is 398 nM.

Consider `Cc1nc(NC(C)(C)C)sc1-c1ccnc(Nc2cccc([N+](=O)[O-])c2)n1` [Compound 51, [4-(2-tert-Butylamino-4-methyl-thiazol-5-yl)-pyrimidin-2-yl]-(3-nitro-phenyl)-amine], for which the IC50 on Aurora A kinase was 100 nM; at CDK1-cyclin B it was 1580 nM; on CDK2-cycline E, 631 nM; at CDK4-cyclin D1, 631 nM; at GSK3b, 631 nM.

For `CNc1nc(C)c(-c2ccnc(Nc3ccc(C)c(Br)c3)n2)s1` [Compound 42, (3-Bromo-4-methyl-phenyl)-[4-(4-methyl-2-methylamino-thiazol-5-yl)-pyrimidin-2-yl]-amine], the IC50 was 25.1 nM on Aurora A kinase; 79.4 nM in [1]; 316 nM at CDK2-cycline E; 6310 nM at CDK7/cyclin H; 1000 nM on GSK3b; 39.8 nM on CDK9/cyclin T1.

For the compound `COCCNc1nc(C)c(-c2ccnc(Nc3cccc(S(N)(=O)=O)c3)n2)s1` [Compound 83, 3-{4-[2-(2-Methoxy-ethylamino)-4-methyl-thiazol-5-yl]-pyrimidin-2-ylamino}-benzenesulfonamide], the IC50 in [1] was 39.8 nM; on CDK2-cycline E it was 25.1 nM; on CDK7/cyclin H, 50.1 nM; at GSK3b it was 794 nM; at CDK9/cyclin T1 it was 15.8 nM.

Consider `CNc1nc(C)c(-c2ccnc(Nc3cc(OC)c(OC)c(OC)c3)n2)s1` [Compound 23, [4-(4-Methyl-2-methylamino-thiazol-5-yl)-pyrimidin-2-yl]-(3,4,5-trimethoxy-phenyl)-amine], for which the IC50 at Aurora A kinase was 3.98 nM; on CDK1-cyclin B, 1000 nM; on CDK7/cyclin H it was 794 nM; at CDK4-cyclin D1, 2000 nM; on GSK3b, 794 nM; at CDK9/cyclin T1, 20 nM.

Compound `CNc1nc(C)c(-c2ccnc(Nc3cccc(S(=O)(=O)NCCOC)c3)n2)s1` [Compound 54, N-(2-Methoxy-ethyl)-3-[4-(4-methyl-2-methylamino-thiazol-5-yl)-pyrimidin-2-ylamino]-benzenesulfonamide] yielded a melting point of 205 to 206 °C. For the same compound, the IC50 on Aurora A kinase was 25.1 nM. For the same compound, the IC50 in data set [1] was 251 nM. Besides, the IC50 at CDK2-cycline E is 100 nM. Also, the IC50 on CDK7/cyclin H was 794 nM. Further, on CDK4-cyclin D1, the IC50 is 251 nM. In addition, the IC50 at GSK3b is 631 nM. At CDK9/cyclin T1, the IC50 is 39.8 nM.

As to `CNc1nc(C)c(-c2ccnc(Nc3cccc(N4CCN(C(C)=O)CC4)c3)n2)s1` [Compound 3, 1-(4-{3-[4-(4-Methyl-2-methylamino-thiazol-5-yl)-pyrimidin-2-ylamino]-phenyl}-piperazin-1-yl)-ethanone], the IC50 is 20 nM on Aurora A kinase; 20 nM in [1]; 2000 nM at CDK7/cyclin H; 3160 nM at CDK4-cyclin D1; 5010 nM at GSK3b.

Take `CNc1nc(C)c(-c2ccnc(Nc3ccc(S(N)(=O)=O)cc3)n2)s1` [Compound 34, 4-[4-(4-Methyl-2-methylamino-thiazol-5-yl)-pyrimidin-2-ylamino]-benzenesulfonamide]: the IC50 was 31.6 nM at Aurora A kinase, 316 nM in data set [1], 1000 nM at CDK7/cyclin H and 1260 nM on GSK3b.
